Experimental data from patent publication US20080138291A1, “Sulfonamide Derivatives Having Carbonic Anhydrase Inhibiting Activity and their Use as Therapeutic and Diagnostic Agents” (UNION LIFE SCIENCES LTD., priority 2005, published 2008).
Where two headings read alike, the source gives them in different places.

Legend:
hCA IX = hCA IX (Homo sapiens, UniProt Q16790); assay: CA inhibition, CO2 hydration method, isozyme IX (catalytic domain); type: biochemical
hCA I = hCA I (Homo sapiens, UniProt P00915); assay: CA inhibition, CO2 hydration method, isozyme I; type: biochemical
hCA I, sequence (P00915 whole entry): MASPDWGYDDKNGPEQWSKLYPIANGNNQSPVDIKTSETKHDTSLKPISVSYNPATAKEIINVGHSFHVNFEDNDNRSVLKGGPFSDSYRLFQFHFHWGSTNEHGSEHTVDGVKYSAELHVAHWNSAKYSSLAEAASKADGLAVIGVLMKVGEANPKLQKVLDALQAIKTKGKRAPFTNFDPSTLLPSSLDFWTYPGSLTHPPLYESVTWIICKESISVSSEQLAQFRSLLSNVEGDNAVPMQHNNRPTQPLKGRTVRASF

hCA II = hCA II (Homo sapiens, UniProt P00918); assay: CA inhibition, CO2 hydration method, isozyme II; type: biochemical; details: for Ki: human cloned isozyme, CO2 hydration method; for hCA II inhibitors, ranking in the series: discussion of Table 1
hCA XII = hCA XII (Homo sapiens, UniProt O43570); assay: CA inhibition, CO2 hydration method, isozyme XII (catalytic domain); type: biochemical; details: Table 2, catalytic domain of human cloned isozyme
hCA XII, sequence (O43570 30-289 limits assumed): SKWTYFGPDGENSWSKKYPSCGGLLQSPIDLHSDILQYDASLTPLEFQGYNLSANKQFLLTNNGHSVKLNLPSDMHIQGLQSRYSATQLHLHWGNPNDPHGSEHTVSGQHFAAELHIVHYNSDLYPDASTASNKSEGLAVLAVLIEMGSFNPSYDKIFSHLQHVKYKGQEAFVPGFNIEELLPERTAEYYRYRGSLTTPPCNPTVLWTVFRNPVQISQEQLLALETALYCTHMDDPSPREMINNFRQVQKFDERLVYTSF

human red cells [1] = system: human red cells
human red cells [2] = assay: Ex vivo penetration through red blood cell membranes; details: for [sulfonamide] in red blood cells, t = 30 min, HPLC / [sulfonamide] in red blood cells, t = 30 min, ES / [sulfonamide] in red blood cells, t = 60 min, HPLC / [sulfonamide] in red blood cells, t = 60 min, ES / [sulfonamide] in red blood cells, t = 48 h, HPLC / [sulfonamide] in red blood cells, t = 48 h, ES: 3 mM sulfonamide in 5 mM Tris buffer pH 7.4; for [sulfonamide] in red blood cells, t = 30 min, HPLC / [sulfonamide] in red blood cells, t = 60 min, HPLC / [sulfonamide] in red blood cells, t = 48 h, HPLC: HPLC method; for [sulfonamide] in red blood cells, t = 30 min, ES / [sulfonamide] in red blood cells, t = 60 min, ES / [sulfonamide] in red blood cells, t = 48 h, ES: electronic spectroscopy; for membrane permeability at exposure times of 30-60 min / membrane permeability after 48 hours of exposure: human RBCs, pH 7.4
[3] = system: HeLa cervical carcinoma cells; assay: Binding of fluorescent sulfonamide to HeLa cells; details: hypoxic versus normoxic cells
Experimental: (§2) Sulfonamide treatment of cells. The sulfonamides were dissolved in PBS with 20% DMSO at 100 mM concentration and diluted in a culture medium to a required final concentration just before their addition to cells. Immediately after beginning of the treatment with sulfonamides, the cells were transferred to hypoxia and incubated for 48 h. Parallel cultures were maintained for the same time period in normoxia.

[4] = system: SiHa cervical carcinoma cells; assay: Effect on extracellular pH of SiHa cells in hypoxia; type: cell-based; details: hypoxia 48 h, 1 mM
[5] = system: SiHa cervical carcinoma cells; assay: Binding of fluorescent sulfonamide to SiHa cells; details: hypoxic versus normoxic cells
Experimental: as §2

[6] = system: HeLa cervical carcinoma cells; assay: Effect on extracellular pH of HeLa cells in hypoxia; type: cell-based; details: hypoxia 48 h, 1 mM
Experimental: Cell cultures. MDCK and HeLa cells as well as their transfected derivatives were grown in DMEM with 10% FCS (BioWhittaker, Verviers, Belgium) buffered with 22.4 mM bicarbonate and containing supplements as described before (Svastova, E.; et al.; Exp. Cell. Res. 2003, 290, 332-345) To maintain standard experimental conditions, the cells were always plated in 3 ml of culture medium at a density of 0.8−1×10^6 per 6 cm dish 24 h before the transfer to hypoxia (2% O2 and 5% CO2 balanced with N2) generated in a Napco 7000 incubator, where they were grown for additional 48 h (if not stated otherwise). Parallel normoxic dishes were incubated in air with 5% CO2.
(§1) Sulfonamide treatment of cells. […] Images were acquired by Nikon Coolpix 990.
Mean differences in the pH values determined in the treated versus control dishes are shown on the histogram with indicated standard deviations. The experiment was repeated three times using at least three parallel dishes for each sample.

MDCK-CA IX cells = assay: Binding of fluorescent sulfonamide to MDCK-CA IX cells (fluorescence microscopy); type: cell-based, canine; details: CA IX-positive and mock-transfected MDCK cells, normoxia or hypoxia 48 h
Excerpt: as §1

[7] = Table 1, catalytic domain of human cloned isozyme
[8] = Table 1, human cloned isozyme, read-out: KI hCA I
[9] = Table 2, catalytic domain of human cloned isozyme
[10] = Table 2, human cloned isozyme, read-out: KI hCA I

Row | Ki (hCA IX; [7]) [nM] | Ki (hCA I; [8]) [nM] | Ki (hCA II; Table 1) [nM] | Ki (hCA IX; [9]) [nM] | Ki (hCA I; [10]) [nM] | Ki (hCA II; Table 2) [nM] | Ki (hCA XII) [nM] | SMILES | other results
1 |  |  |  | 30 | 1800 | 43 | 9 | NS(=O)(=O)c1cccc(NC(=O)Nc2ccc(-c3c4ccc(=O)cc-4oc4cc(O)ccc34)c(C(=O)O)c2)c1 [compound 2, (3-Sulfamoylphenyl)ureido fluorescein] | 
2 |  |  |  | 21 | 1560 | 40 | 8 | NS(=O)(=O)c1ccc(CNC(=O)Nc2ccc(-c3c4ccc(=O)cc-4oc4cc(O)ccc34)c(C(=O)O)c2)cc1 [compound 4, (4-Sulfamoylphenylmethyl)ureido fluorescein] | 
3 |  |  |  |  | 1340 | 35 | 7 | NS(=O)(=O)c1ccc(CCNC(=O)Nc2ccc(-c3c4ccc(=O)cc-4oc4cc(O)ccc34)c(C(=O)O)c2)cc1 [compound 5, (4-Sulfamoylphenylethyl)ureido fluorescein] | 
4 | 20 | 630 | 34 |  |  |  |  | NS(=O)(=O)c1ccc(CNS(=O)(=O)c2ccc(NC(=S)Nc3ccc(-c4c5ccc(=O)cc-5oc5cc(O)ccc45)c(C(=O)O)c3)cc2)cc1 [5j] | hCA II inhibitors, ranking in the series (hCA II): best hCA II inhibitors in this series
5 | 30 | 980 |  |  |  |  |  | NS(=O)(=O)c1ccc(NC(=S)Nc2ccc(-c3c4ccc(=O)cc-4oc4cc(O)ccc34)c(C(=O)O)c2)c(F)c1 [5e] | 
6 | 32 | 950 | 52 |  |  |  |  | NS(=O)(=O)c1ccc(NC(=S)Nc2ccc(-c3c4ccc(=O)cc-4oc4cc(O)ccc34)c(C(=O)O)c2)c(Cl)c1 [5f] | 
7 | 25 | 1200 | 40 |  |  |  |  | NS(=O)(=O)c1ccc(NNC(=S)Nc2ccc(-c3c4ccc(=O)cc-4oc4cc(O)ccc34)c(C(=O)O)c2)cc1 [5d] | 
8 | 34 | 1400 | 52 |  |  |  |  | NS(=O)(=O)c1cccc(NC(=S)Nc2ccc(-c3c4ccc(=O)cc-4oc4cc(O)ccc34)c(C(=O)O)c2)c1 [5i, (3-Sulfamoylphenyl)thioureido fluorescein] | 
9 |  |  |  | 7 | 520 | 14 | 5 | NS(=O)(=O)c1ccc(CNS(=O)(=O)c2ccc(NC(=O)Nc3ccc(-c4c5ccc(=O)cc-5oc5cc(O)ccc45)c(C(=O)O)c3)cc2)cc1 [compound 10, [4-(4-Sulfamoyl-benzylsulfamoyl)-phenyl]-ureido fluorescein] | 

Second part, the compound before the results:

Row | SMILES | Ki (hCA IX; [7]) [nM] | Ki (hCA I; [8]) [nM] | Ki (hCA II; Table 1) [nM] | Ki (hCA IX; [9]) [nM] | Ki (hCA I; [10]) [nM] | Ki (hCA II; Table 2) [nM] | Ki (hCA XII) [nM] | other results
10 | NS(=O)(=O)c1ccc(NC(=S)Nc2ccc(-c3c4ccc(=O)cc-4oc4cc(O)ccc34)c(C(=O)O)c2)cc1 [5a, (4-Sulfamoylphenyl)thioureido fluorescein] | 29 | 1500 | 41 |  |  |  |  | 
11 | NS(=O)(=O)c1ccc(NC(=O)Nc2ccc(-c3c4ccc(=O)cc-4oc4cc(O)ccc34)c(C(=O)O)c2)c(I)c1 [compound 9, (2-Iodo-4-sulfamoylphenyl)ureido fluorescein] |  |  |  | 21 | 1350 | 43 | 7 | 
12 | NS(=O)(=O)c1ccc(NC(=S)Nc2ccc(-c3c4ccc(=O)cc-4oc4cc(O)ccc34)c(C(=O)O)c2)c(I)c1 [5h, (2-Iodo-4-sulfamoylphenyl)thioureido fluorescein] | 31 | 1070 | 40 |  |  |  |  | 
13 | NS(=O)(=O)c1ccc(NC(=O)Nc2ccc(-c3c4ccc(=O)cc-4oc4cc(O)ccc34)c(C(=O)O)c2)c(Cl)c1 [compound 7] |  |  |  | 22 | 1330 | 43 | 12 | 
14 | NS(=O)(=O)c1nnc(NS(=O)(=O)c2ccc(NC(=O)Nc3ccc(-c4c5ccc(=O)cc-5oc5cc(O)ccc45)c(C(=O)O)c3)cc2)s1 [compound 11, [4-(5-Sulfamoyl-[1,3,4]thiadiazol-2-ylsulfamoyl)-phenyl]-ureido fluorescein] |  |  |  | 6 | 410 | 13 | 3 | 
15 | NS(=O)(=O)c1ccc(NC(=O)Nc2ccc(-c3c4ccc(=O)cc-4oc4cc(O)ccc34)c(C(=O)O)c2)c(F)c1 [compound 6, (2-Fluoro-4-sulfamoylphenyl)ureido fluorescein] |  |  |  | 21 | 1200 | 40 | 10 | 
16 | NS(=O)(=O)c1ccc(NC(=S)Nc2ccc(-c3c4ccc(=O)cc-4oc4cc(O)ccc34)c(C(=O)O)c2)c(Br)c1 [5g] | 35 | 1100 | 43 |  |  |  |  | 
17 | CC(=O)/N=c1/sc(S(N)(=O)=O)nn1C [MZA, methazolamide, reference compound] |  |  |  |  |  |  |  | penetration through red blood cell membranes (human red cells [1]): easily penetrate through biological membranes; [sulfonamide] in red blood cells, t = 30 min, HPLC (human red cells [2]): 170 µM; [sulfonamide] in red blood cells, t = 30 min, ES (human red cells [2]): 169 µM; [sulfonamide] in red blood cells, t = 60 min, HPLC (human red cells [2]): 168 µM; [sulfonamide] in red blood cells, t = 60 min, ES (human red cells [2]): 168 µM; [sulfonamide] in red blood cells, t = 48 h, HPLC (human red cells [2]): 167 µM; [sulfonamide] in red blood cells, t = 48 h, ES (human red cells [2]): 169 µM
18 | NS(=O)(=O)c1ccc(CNC(=S)Nc2ccc(-c3c4ccc(=O)cc-4oc4cc(O)ccc34)c(C(=O)O)c2)cc1 [5b, (4-sulfamoylphenylmethyl)thioureido fluorescein] | 26 | 1450 |  |  |  |  |  | [sulfonamide] in red blood cells, t = 30 min, HPLC (human red cells [2]): 0.5 µM; [sulfonamide] in red blood cells, t = 30 min, ES (human red cells [2]): 0.8 µM; [sulfonamide] in red blood cells, t = 60 min, HPLC (human red cells [2]): 0.8 µM; [sulfonamide] in red blood cells, t = 60 min, ES (human red cells [2]): 0.8 µM; [sulfonamide] in red blood cells, t = 48 h, HPLC (human red cells [2]): 10.1 µM; [sulfonamide] in red blood cells, t = 48 h, ES (human red cells [2]): 2.5 µM; membrane permeability at exposure times of 30-60 min (human red cells [2]): decreased membrane permeability; membrane permeability after 48 hours of exposure (human red cells [2]): slightly more permeant
19 | NS(=O)(=O)c1ccccc1NC(=O)Nc1ccc(-c2c3ccc(=O)cc-3oc3cc(O)ccc23)c(C(=O)O)c1 [compound 3, (2-Sulfamoylphenyl)ureido fluorescein] |  |  |  | 46 | 1900 | 76 | 18 | 
20 | NS(=O)(=O)c1ccc(CCNC(=S)Nc2ccc(-c3c4ccc(=O)cc-4oc4cc(O)ccc34)c(C(=O)O)c2)cc1 [5c, (4-Sulfamoylphenylethyl)thioureido fluorescein] |  |  |  |  |  |  |  | Ki (hCA I; KI hCA I, Table 1, human cloned isozyme): 1300 nM; binding to HeLa cells [3]: binds to hypoxic HeLa and SiHa cells; acidosis (pHe) of hypoxic SiHa cells [4]: reduced; binding to SiHa cells [5]: binds to hypoxic HeLa and SiHa cells; acidosis (pHe) of hypoxic HeLa cells [6]: reduced; fluorescence signal (binding to cells) (MDCK-CA IX cells): detected only in the hypoxic MDCK-CA IX cells; [sulfonamide] in red blood cells, t = 30 min, HPLC (human red cells [2]): 0.4 µM; [sulfonamide] in red blood cells, t = 30 min, ES (human red cells [2]): 0.9 µM; [sulfonamide] in red blood cells, t = 60 min, HPLC (human red cells [2]): 0.6 µM; [sulfonamide] in red blood cells, t = 60 min, ES (human red cells [2]): 1.2 µM; [sulfonamide] in red blood cells, t = 48 h, HPLC (human red cells [2]): 10.4 µM; [sulfonamide] in red blood cells, t = 48 h, ES (human red cells [2]): 3.0 µM; membrane permeability at exposure times of 30-60 min (human red cells [2]): decreased membrane permeability; membrane permeability after 48 hours of exposure (human red cells [2]): slightly more permeant
21 | NS(=O)(=O)c1nnc(NS(=O)(=O)c2ccc(NC(=S)Nc3ccc(-c4c5ccc(=O)cc-5oc5cc(O)ccc45)c(C(=O)O)c3)cc2)s1 [5k, [4-(5-Sulfamoyl-[1,3,4]thiadiazol-2-ylsulfamoyl)-phenyl]-thioureido fluorescein] | 16 | 480 | 27 |  |  |  |  | hCA II inhibitors, ranking in the series (hCA II): best hCA II inhibitors in this series
22 | NS(=O)(=O)c1ccc(NC(=O)Nc2ccc(-c3c4ccc(=O)cc-4oc4cc(O)ccc34)c(C(=O)O)c2)cc1 [compound 1, (4-Sulfamoylphenyl)ureido fluorescein] |  |  |  | 21 | 1700 | 36 | 11 | 
